From paper PMC12040169 (PLOS Biology, 2025)

Assay: in vitro
Settings: human, hela cells, % viability

| Compound | viability at 28.5 h, 10 µM [%] |
| --- | --- |
| O=C1OCCN1CCN1CCCN(Cc2ccc(F)cc2)CC1 [CBK304023] | 103 |
| CNS(=O)(=O)c1ccc(C)c(C(=O)N(C)Cc2cnn(C)c2)c1 [CBK304026] | 89.1 |
| Cc1cccn2cc(CCNC(=O)CN(C)C3CCSC3)nc12 (stereo not drawn) [CBK304027] | 84.6 |
| Cc1ccc(C#N)cc1S(=O)(=O)NC1CC(=O)c2ccccc21 (stereo not drawn) [CBK304030] | 117 |
| CCN1CC(C(=O)N2CC(O)CC2c2cc(F)ccc2F)CC1=O (stereo not drawn) [CBK304031] | 103 |
| CCN1CCC2CCC(C1)N2Cc1ccc(Oc2cnccn2)cc1 (stereo not drawn) [CBK304034] | 95.7 |
| COCC(=O)N1CCN(Cc2cccc(-c3ccccn3)c2)CC1 [CBK304035] | 91.3 |
| CCCCc1noc(CN2CCCC2C(=O)NCc2ccco2)n1 (stereo not drawn) [CBK304036] | 88 |
| Cc1nc(C)n(CC2CCCN(c3ncnc4ccsc34)C2)n1 (stereo not drawn) [CBK304037] | 71.8 |
| Cc1ccc(C)c2c1CCCC2N1CCC(NS(C)(=O)=O)CC1 (stereo not drawn) [CBK304038] | 103 |
| CCN(C(C)COC)S(=O)(=O)c1ccc(C(F)(F)F)nc1 (stereo not drawn) [CBK304042] | 88.8 |
| c1cnn(C2CCCN(Cc3ccc(Oc4cnccn4)cc3)C2)c1 (stereo not drawn) [CBK304043] | 96.9 |
| CCOC(=O)c1cnn(C2CCCN(Cc3ccc(C#N)o3)C2)c1 (stereo not drawn) [CBK304045] | 116 |
| CCOC(=O)c1cnn(C2CCCN(Cc3cccc(O)c3)C2)c1 (stereo not drawn) [CBK304046] | 100 |
| CCONC(=O)c1cc(-c2ccccc2C)nc2c1cnn2C(C)C [CBK304048] | 95.5 |
| COCCn1c(SCc2cn3c(C)cccc3n2)nc(C)c1C [CBK304050] | 83.9 |
| Cc1cc(N2CCN(C(=O)c3ccsc3)CC2)nc(C(C)C)n1 [CBK304053] | 102 |
| Cc1nc(CCNCc2c(C)nn(C)c2N2CCOCC2)cs1 [CBK304054] | 101 |
| N#Cc1ccc(NCc2ccccc2CN2CCCC2CO)nc1 (stereo not drawn) [CBK304055] | 95.8 |
| Cc1c(CNCCN2CCN(C)CC2c2ccccc2)cnn1C (stereo not drawn) [CBK304056] | 98.8 |
| Cc1cccc(CCNC(=O)N2CCN(Cc3ccccn3)CC2)c1 [CBK304057] | 103 |

| Compound | viability at 28.5 h, 10 µM [%] |
| --- | --- |
| CCOC(=O)c1cnn(C2CCCN(Cc3c(C)n[nH]c3C)C2)c1 (stereo not drawn) [CBK304059] | 88.6 |
| COCn1nccc1S(=O)(=O)NCCc1cn2ccccc2n1 [CBK304060] | 80.6 |
| CCOc1ccc(CC(=O)Nc2ncccc2OCCCC#N)cc1 [CBK304062] | 90.3 |
| O=C(Nc1cccc(F)c1)N(Cc1cccnc1)CC1CCCO1 (stereo not drawn) [CBK304065] | 109 |
| CC(=O)Nc1cccc(C(=O)N2CCN(Cc3ccccn3)CC2)c1 [CBK304067] | 86.3 |
| Cc1cccc(N2CCN(C(=O)CCc3ccsc3)C(C)C2)n1 (stereo not drawn) [CBK304069] | 96.6 |
| Cc1ccc(CC2CCCN2CC(=O)NCc2ccccn2)cc1 (stereo not drawn) [CBK304070] | 96.6 |
| Cc1c(C(=O)N2CCC[C@@H]2CO)nnn1Cc1ccc(F)cc1F [CBK304071] | 89.2 |
| COC(=O)c1cccc2c1CCCN2Cc1nnc(C2CCC2)o1 [CBK304072] | 105 |
| Cc1cc(S(=O)(=O)N2CCN(CCO)C(C)C2)sc1Cl (stereo not drawn) [CBK304074] | 91.4 |
| CCCCNc1cc(N2CCN(C(=O)COC)CC2)nc(N)n1 [CBK304078] | 98.8 |
| Cc1cccc(OCCN2C(=O)CC(Cc3cnn(C)c3)C2=O)c1 (stereo not drawn) [CBK304081] | 99.7 |
| CCc1nc(CC(=O)N2CCOC(c3ccc(F)cc3)C2)cs1 (stereo not drawn) [CBK304083] | 87 |
| Cc1nonc1CNC(=O)N1CCOCC(C2CCC2)C1 (stereo not drawn) [CBK304086] | 97.4 |
| Cc1cc(C)n(CCCNC(=O)N2CCC(c3nccs3)CC2)n1 [CBK304088] | 91.9 |
| CCc1ccc2c(c1)C(CCNC(=O)c1c(C)noc1C(F)F)C(=O)N2 (stereo not drawn) [CBK304090] | 95.1 |
| COCCc1noc(CC2CCN(c3cc(C)ncc3C#N)CC2)n1 [CBK304092] | 90.4 |
| Cc1cc(CS(=O)(=O)N2CCOCC2c2cccc(F)c2)no1 (stereo not drawn) [CBK304093] | 95.4 |
| Cc1cc(O)nc(C(C)N2CCOC(C(C)(C)C)C2)n1 (stereo not drawn) [CBK304097] | 104 |
| Cc1nnnn1-c1cc(NC(=O)NCCCc2nc[nH]n2)ccc1F [CBK304102] | 87.7 |
| Cc1c(C(=O)N(C)Cc2csc3ccccc23)nnn1C1CCNCC1 [CBK304103] | 84.6 |

| Compound | viability at 28.5 h, 10 µM [%] |
| --- | --- |
| CC(=O)Nc1ccc(CN(CCO)C2CCc3ccccc32)cc1 (stereo not drawn) [CBK304104] | 93.2 |
| CC(N)C1CCCN(S(=O)(=O)c2ccc(OCc3ncnn3C)cc2)C1 (stereo not drawn) [CBK304105] | 114 |
| CN(C)CC1CN(C(=O)Nc2ncc(Cc3ccccc3Cl)s2)CCO1 (stereo not drawn) [CBK304107] | 93.6 |
| CN(CCc1cccnc1)CC(=O)Nc1cccc(Cl)c1 [CBK304108] | 93.1 |
| Cc1ccc(-n2nnc(C(=O)N3CCCCC3C(=O)O)c2C)cc1 (stereo not drawn) [CBK304109] | 87.7 |
| COc1ncccc1-c1csc(C2CN3CCCC3CO2)n1 (stereo not drawn) [CBK304110] | 83.5 |
| CS(=O)(=O)CCS(=O)(=O)N1CCOCC1c1cccc(F)c1 (stereo not drawn) [CBK304111] | 84.2 |
| Cc1ccc(-c2csc(C3CN4CCCC4CO3)n2)s1 (stereo not drawn) [CBK304113] | 121 |
| CC(C)CCn1cc(C(=O)N2CCNCC2c2cccc(Cl)c2)nn1 (stereo not drawn) [CBK304115] | 91.4 |
| COc1ncccc1-c1csc(N2CCOC(C)C2)n1 (stereo not drawn) [CBK304118] | 81.8 |
| Cc1ccc(Cc2cnc(NC(=O)N3CCC(O)C(F)(F)C3)s2)cc1C (stereo not drawn) [CBK304120] | 94.7 |
| CCCc1nc(CN2CCNC(=O)C2c2ccccc2C(F)(F)F)no1 (stereo not drawn) [CBK304123] | 93.2 |
| Cc1nsc(NCc2ccccc2CN2CCCC2CO)c1C#N (stereo not drawn) [CBK304124] | 88.8 |
| COc1ccc(Br)cc1C1CCCN1C(=O)Cc1cnccc1C (stereo not drawn) [CBK304130] | 93.7 |
| CCCC1(C)CCCN(Cc2nnnn2-c2ccc(S(C)(=O)=O)cc2)C1 (stereo not drawn) [CBK304133] | 79.8 |
| CS(=O)(=O)c1ccc(-n2nnnc2CNC2(CO)CCCC2)cc1 [CBK304134] | 91.8 |
| CCOc1cc(NC2CCN(C(=O)C3(CC(C)C)CCC3)CC2)ncn1 [CBK304136] | 105 |
| CCOc1cc(NC2CCN(C(=O)C3CCCC3)C2)ncn1 (stereo not drawn) [CBK304137] | 106 |
| CN(Cc1nc2c(s1)CCCC2)C(=O)c1ccc2[nH]cnc2c1 [CBK304138] | 88.4 |
| COc1ccc(C(C)NC2CCN(c3ccccn3)CC2)cc1F (stereo not drawn) [CBK304146] | 86.8 |
| OC(CSc1ncnc2sc3c(c12)CCC3)Cn1cccn1 (stereo not drawn) [CBK304149] | 72.3 |

| Compound | viability at 28.5 h, 10 µM [%] |
| --- | --- |
| CC(=O)Nc1ccc(NC(=O)NCC2CCCO2)c(C(F)(F)F)c1 (stereo not drawn) [CBK304150] | 92.8 |
| COCc1nc(CN2CCNC(=O)C2c2ccccc2C(F)(F)F)no1 (stereo not drawn) [CBK304157] | 87.2 |
| Cc1ncn(Cc2nc(-c3ccsc3)no2)c(=O)c1C [CBK304158] | 113 |
| Cc1cnn(C2CCN(C(=O)NC(C)C3OCCc4sccc43)C2)c1 (stereo not drawn) [CBK304159] | 96.8 |
| COCc1ccsc1C(=O)Nc1ncn(CC(=O)N2CCCCCC2)n1 [CBK304160] | 94.9 |
| Cc1nc(-c2cccnc2)[nH]c(=O)c1CCC(=O)N1CCNC(C)C1 (stereo not drawn) [CBK304163] | 102 |
| CC1(O)CCN(Cc2nnnn2-c2ccc(S(C)(=O)=O)cc2)CC1 [CBK304166] | 99.2 |
| CCCCNc1cc(N(C)Cc2cnn(C)c2)nc(N)n1 [CBK304167] | 62.6 |
| Cc1noc(C)c1S(=O)(=O)N1CCOCC1c1cccc(F)c1 (stereo not drawn) [CBK304171] | 109 |
| CCOC(=O)C(NC(=O)c1cc[nH]c(=O)c1)c1cccc(C)c1C (stereo not drawn) [CBK304174] | 97.1 |
| COCCc1noc(CC2CCN(c3ccc(Cl)c(C#N)n3)CC2)n1 [CBK304177] | 97.5 |
| COCCc1noc(CC2CCN(c3ncncc3C#N)CC2)n1 [CBK304178] | 90.5 |
| CCn1c(C)nnc1CN(CC1CCCO1)C1CCCC1 (stereo not drawn) [CBK304181] | 96.4 |
| Cc1cnn(C2CCN(C(=O)CC3OCCc4ccccc43)CC2)c1 (stereo not drawn) [CBK304186] | 93.6 |
| Cn1cc(CC2CCN(Cc3ccc(Oc4cnccn4)cc3)C2)cn1 (stereo not drawn) [CBK304188] | 108 |
| CCn1c(CN2CCC(c3cc(O)nc(N)n3)C2)nc2c(F)cccc21 (stereo not drawn) [CBK304189] | 87.5 |
| CC(C)C(CNCc1cncnc1)c1ccnn1C (stereo not drawn) [CBK304190] | 79.9 |
| CCOC(=O)c1cn(CC2CC2)c2cc(F)c(F)cc2c1=O [CBK304195] | 98.1 |
| NCC1CCCN1C(=O)c1ccc(Oc2cccc(Br)c2)nc1 (stereo not drawn) [CBK304200] | 95.5 |
| c1ccc(Cc2csc(C3CN4CCCC4CO3)n2)cc1 (stereo not drawn) [CBK304202] | 90.2 |
| COCCc1noc(CC2CCN(c3nc(C#N)c(Cl)s3)CC2)n1 [CBK304205] | 102 |
